# Test results from patent publication US20060135587A1, “Method and compounds for promoting healing and reducing inflammation” (priority 2002, published 2006).
# Tests used:
# myocardial infarction [1] = test: Clinical comparison of Compound 2 and Riboxin in subacute myocardial infarction (Example 25); assay type: in vivo, human
# Description: A total of 94 patients were examined; of these:
# Conventional therapy as for example 24 was given to 30 patients. Each patient continued to receive the treatment which s/he had been given prior to commencement of the trial. Compound 2 was administered in addition to the previous treatment.
# All the patients underwent standard laboratory tests prior to commencement of Compound 2 therapy, 14 days after the beginning of the course and upon completion of the course. The tests included clinical blood analysis; general urine analysis; evaluation of creatinine, bilirubin, transaminase activity, blood sugar, cholesterol and β-lipoproteins, malonic dialdehyde, Schiff bases, zinc, iron, copper, plasma potassium and sodium, prothrombin and fibrinogen; and an ECG examination in dynamics.
# All the patients received conventional therapy, i.e. nitrates, anticoagulants and/or hypotensive agents as appropriate.
# Combination therapy included Compound 2 (1st group—32 patients) or Riboxin (2nd group—18 patients). The agents were administered at a dose of 200 mg three times per day.
# myocardial infarction [2] = test: Clinical study in subacute phase of myocardial infarction (Example 24); assay type: in vivo, human
# Description: The effect of Compound 2 therapy in patients suffering from the subacute phase of myocardial infarction (MI) was assessed. The patients were divided into two groups. There were no substantial differences between the groups in terms of age and basic features of necrotic foci. Each patient continued to receive the treatment which s/he had been given prior to commencement of the trial. Compound 2 was administered in addition to the previous treatment. The first group included 63 patients who received conventional therapy, i.e. nitrates, anticoagulants and/or hypotensive agents as appropriate, and the second group comprised 44 patients who were treated with Compound 2 at a dose of 600 mg per day from the 7th to the 28th day after diagnosis of myocardial infarction, in addition to receiving conventional treatment. The control group included 14 healthy men aged from 26 to 42. The average age of patients in the first group was 50.3 years, and in the second group, 49.5 years.
# Clinical evidence from daily examinations of both groups and the results of electrocardiagraphic examination in 12 abductions were assessed over the entire observation period. A number of analyses were made on the 7th and 28th day of progress of MI, including clinical blood count, plasma bilirubin, sugar, creatinine, cholesterol, β3-lipoproteins, potassium and sodium, and urine analysis; the activity of the prothrombin complex and the time of re-calcification were also determined. Central haemodynamics were examined using the method of body integral rheography, whereby the stroke volume and cardiac indices were calculated. Indices of left ventricular contractility—terminal diastolic volume, ejection fraction, and the extent of systolic contraction of anteroposterior cavity dimensions (% ΔS)— were examined using the echography method using an Aloka SSD-119 apparatus (Japan). Central and intracardiac haemodynamics was investigated on the 1st, 7th; 14th, 21st and 28th days of the disease.
# [3] = tested on: neurogenic dystrophy of the myocardium; test: Myocardial infarction model (electrostimulation), enzymes in rabbit myocardium; assay type: in vivo, rabbits; settings: 10 mg/kg; 48 hours after electrostimulation
# From the text: (§1) The effect of Compound 2 on myocardial tissue in an experimental model of myocardial infarction was examined. In this model system neurogenic dystrophy of the myocardium was induced in rats or rabbits by electrical stimulation of the reflexogenic zone of the aortic arch by implanted electrodes for a period of three hours. […] These changes are accompanied by changes in biochemical indicators such as creatine phosphate, cAMP, and calcium ion concentrations, and changes in the activity of redox enzymes such as succinate dehydrogenase, lactate dehydrogenase, and glucose-6-phosphate dehydrogenase. At a later stage organic lesions of the myocardium such as necrotic and fibrosclerotic foci can be observed.
# (§2) The effect of Compound 2 given intraperitoneally or orally on these indicators was examined in rats and rabbits following electrostimulation as described above. The effects on levels of creatine phosphate in rat myocardial are shown in Table 19, and the effects on adenosine triphosphatase (ATPase), succinate dehydrogenase and glucose-6-phosphate dehydrogenase rabbit myocardium are shown in Table 20. The effects on cAMP and Ca^++ levels in rabbit myocardial tissue are shown in FIG. 5, and effects on creatine kinase in rabbit myocardium and blood and the levels of creatine phosphate in myocardium are shown in FIG. 6.
# [4] = tested on: neurogenic dystrophy of the myocardium; test: Myocardial infarction model (electrostimulation of aortic arch), creatine phosphate in rat myocardium; assay type: in vivo, rats
# From the text: as §1, §2
# [5] = tested on: cryogenic ulcer of the gastric mucosa; test: Cryogenic gastric ulcer in rats; assay type: in vivo; settings: for reduction of the size of lesions in the gastric mucosa: day 14
# Description: The models used gastric ulcers induced by
# c) Ulcer created by local wounding with a cryogenic probe using a method similar to that described above for mouth ulcers.
# The compounds were administered intraperitoneally at a dose of 20 mg/kg; in the cryogenic ulcer model compound 2 was administered either intraperitoneally (10 mg/kg) or orally (20 mg/kg twice daily, ie. a total of 40 mg/kg/day) and was compared to orally-administered gastrocepin (1 mg/kg twice daily, ie. a total of 2 mg/kg/day).
# experimental granuloma = test: Cotton-wool granuloma (chronic proliferative inflammation) in rats; assay type: in vivo; settings: 100 mg/kg orally, 12 days
# Description: We investigated the ability of compound (2) to reduce the formation of granulation tissue in the inflammatory focus which develops at the site at which a non-sterile cotton-wool roll weighing 40 mg is implanted subcutaneously (Swingle and Shideman, 1972). Compound (2) was administered orally to male rats weighing 130-150 g at a dose of 100 mg/kg for 6 days before the cotton-wool roll was implanted, and then for 6 days at the same dose while the granuloma developed. Anti-inflammatory agents, such as ibuprofen and butadione, were used for comparison, using the same procedure. There were 10 rats in each group.
# After 12 days the experiment was terminated, and the granulomas were excised, weighed, and the wet weight of the granulation tissue was measured. The dry mass of the granuloma was measured after drying for 24 hours at 70° C., and the exudative and proliferative stages of the granulomas were calculated. Statistical analysis was performed using the Student's parametric test.
# [6] = 200 mg three times per day plus conventional therapy
# [7] = patients with repeated myocardial infarct
# [8] = healing effect over the course of 14 days, twice daily, oral
smiles,measurement,setting,value
"CC[n+]1cn(C)c(C(=O)NC)c1C(=O)NC.O=S(=O)([O-])c1ccccc1 [Compound 2, 1-methyl-3-ethyl-4,5-bis(N-methylcarbamoyl)-imidazolium benzenesulfonate]",cholesterol levels,myocardial infarction [1]; [6],96.5%
same,level of prothrombin,myocardial infarction [1]; [6],91.3%
same,ejection fraction,"myocardial infarction [1]; 200 mg three times per day plus conventional therapy, 54.4±1.5% in the absence of the agent",60.0±0.5%
same,malonic dialdehyde,"myocardial infarction [1]; 21st day, 1.3 before treatment, normal 1.21",1 nmol/mL
same,superoxide dismutase levels,"myocardial infarction [1]; after therapy, 18-20 before treatment, norm 23",25 conventional units
same,level of Schiff bases,"myocardial infarction [1]; after therapy, 75 before treatment, normal 60",40 conventional units
same,allergic reactions or side effects,"myocardial infarction [1]; human, in vivo",did not develop any allergic reactions or side effects
same,cases in which cicatrisation took place one or two days earlier,myocardial infarction [1]; [7],90%
same,time of cicatrisation on the average,myocardial infarction [1]; [7],27 days
same,left ventricular myocardial contractility,myocardial infarction [2]; 600 mg per day combined with conventional therapy,increased the rate and extent of regeneration of left ventricular myocardial contractility
same,clinical side effects,"myocardial infarction [2]; 600 mg per day, 7th to 28th day of the disease",did not produce any clinical side effects
same,serum bilirubin,"myocardial infarction [2]; 600 mg per day, does not exceed the upper limit of standard values",increase in unconjugated and hence total bilirubin in serum
same,ATPase,[3],0.47 ± 0.13 µM/mg/min
same,Glucose-6-phosphate dehydrogenase (optical density units),[3],6.2 ± 0.7 optical density units
same,Succinate dehydrogenase (optical density units),[3],44.2 ± 6.7 optical density units
same,Level of creatine phosphate (μM/g) in rat myocardium,"[4]; Oral 10 mg/kg, 3 days after stimulation",1.09 ± 0.1 µM/g
same,Level of creatine phosphate (μM/g) in rat myocardium,"[4]; Oral 10 mg/kg, Before stimulation",0.80 ± 0.07 µM/g
same,Level of creatine phosphate (μM/g) in rat myocardium,"[4]; intraperitoneal 10 mg/kg, 3 days after stimulation",0.95 ± 0.06 µM/g
same,Level of creatine phosphate (μM/g) in rat myocardium,"[4]; intraperitoneal 10 mg/kg, Before stimulation",0.92 ± 0.08 µM/g
same,Level of creatine phosphate (μM/g) in rat myocardium,"[4]; intraperitoneal 20 mg/kg, 3 days after stimulation",1.07 ± 0.04 µM/g
same,Level of creatine phosphate (μM/g) in rat myocardium,"[4]; intraperitoneal 20 mg/kg, Before stimulation",1.04 ± 0.15 µM/g
same,reduction of the size of lesions in the gastric mucosa,[5]; 10 mg/kg intraperitoneally,53%
same,reduction of the size of lesions in the gastric mucosa,[5]; daily dose of 40 mg/kg orally,51%
same,% reduction of degree of ulceration,[5]; [8],62%
same,Average number of lesions per animal,[5]; [8],9.4 ± 1.0
same,Granuloma weight (mg) Dry weight,experimental granuloma,180.71 ± 14.16 mg
same,Granuloma weight (mg) Exudative stage,experimental granuloma,775.58 mg
same,Granuloma weight (mg) Fresh weight,experimental granuloma,956.29 ± 115.5 mg
same,Granuloma weight (mg) Proliferative stages,experimental granuloma,140.71 mg
